Source: patent publication US20190152957A1, “PYRIDIN-3-YL ACETIC ACID DERIVATIVES AS INHIBITORS OF HUMAN IMMUNODEFICIENCY VIRUS REPLICATION” (ViiV HEALTHCARE UK (NO.5) LIMITED, priority 2016, published 2019)
pEC50: −log10 of the molar value.

system: recombinant NL-RLuc virus (HIV NL4-3 with Renilla Luciferase gene) in MT-2 cells; assay: Inhibition of HIV replication (NL-RLuc virus, luciferase readout in MT-2 cells); assay type: cell-based; conditions: MT2, 120 h, read-out: Activity
Source text: Inhibition of HIV Replication:
A recombinant NL-RLuc proviral clone was constructed in which a section of the nef gene from NL4-3 was replaced with the Renilla Luciferase gene. This virus is fully infectious and can undergo multiple cycles of replication in cell culture. In addition, the luciferous reporter provides a simple and easy method for quantitating the extent of virus growth and consequently, the antiviral activity of test compounds. The plasmid pNLRLuc contains the proviral NL-Rluc DNA cloned into pUC18 at the PvuII site. The NL-RLuc virus was prepared by transfection of 293T cells with the plasmid pNLRLuc. Transfections were performed using the LipofectAMINE PLUS kit from Invitrogen (Carlsbad, Calif.) according to the manufacturer and the virus generated was titered in MT-2 cells. For susceptibility analyses, the titrated virus was used to infect MT-2 cells in the presence of compound, and after 5 days of incubation, cells were processed and quantitated for virus growth by the amount of expressed luciferase. Assay media was RPMI 1640 supplemented with 10% heat inactivated fetal bovine serum (FBS), 100 units/ml penicillin G/100 units/ml streptomycin, 10 mM HEPES buffer pH 7.55 and 2 mM L-glutamine. The results from at least 2 experiments were used to calculate the EC50 values. Luciferase was quantitated using the Dual Luciferase kit from Promega (Madison, Wis.). Susceptibility of viruses to compounds was determined by incubation in the presence of serial dilutions of the compound. The 50% effective concentration (EC50) was calculated by using the exponential form of the median effect equation where (Fa)=1/[1+(ED50/drug conc.)^m](Johnson V A, Byington R T. Infectivity Assay. In Techniques in HIV Research. ed. Aldovini A, Walker BD. 71-76. New York: Stockton Press. 1990). Activity equal to A refers to a compound having an EC50≤100 nM, while B and C denote compounds having an EC50 between 100 nM and 1 uM (B) or >1 uM (C).

Structure (SMILES)	pEC50
Cc1nc(C)c([C@H](OC(C)(C)C)C(=O)O)c(N2CCC(C)(C)CC2)c1-c1ccc2c(c1)CCN(Cc1nccn1C)C2 [Compound 38, (S)-2-(tert-butoxy)-2-(4-(4,4-dimethylpiperidin-1-yl)-2,6-dimethyl-5-(2-((1-methyl-1H-imidazol-2-yl)methyl)-1,2,3,4-tetrahydroisoquinolin-6-yl)pyridin-3-yl)acetic acid]	> 7.00
Cc1nc[nH]c1CN1CCc2cc(-c3c(C)nc(C)c([C@H](OC(C)(C)C)C(=O)O)c3N3CCC(C)(C)CC3)ccc2C1 [Compound 39, (S)-2-(tert-butoxy)-2-(4-(4,4-dimethylpiperidin-1-yl)-2,6-dimethyl-5-(2-((4-methyl-1H-imidazol-5-yl)methyl)-1,2,3,4-tetrahydroisoquinolin-6-yl)pyridin-3-yl)acetic acid]	6.00 to 7.00
Cc1nc(C)c([C@H](OC(C)(C)C)C(=O)O)c(N2CCC(C)(C)CC2)c1-c1ccc2c(c1)CCN(Cc1c[nH]cn1)C2 [Compound 40, (S)-2-(5-(2-((1H-imidazol-4-yl)methyl)-1,2,3,4-tetrahydroisoquinolin-6-yl)-4-(4,4-dimethylpiperidin-1-yl)-2,6-dimethylpyridin-3-yl)-2-(tert-butoxy)acetic acid]	< 6.00
Cc1cccc(-n2cc(CN3CCc4cc(-c5c(C)nc(C)c([C@H](OC(C)(C)C)C(=O)O)c5N5CCC(C)(C)CC5)ccc4C3)cn2)c1 [Compound 41, (S)-2-(tert-butoxy)-2-(4-(4,4-dimethylpiperidin-1-yl)-2,6-dimethyl-5-(2-((1-(m-tolyl)-1H-pyrazol-4-yl)methyl)-1,2,3,4-tetrahydroisoquinolin-6-yl)pyridin-3-yl)acetic acid]	> 7.00
Cc1cc(CN2CCc3cc(-c4c(C)nc(C)c([C@H](OC(C)(C)C)C(=O)O)c4N4CCC(C)(C)CC4)ccc3C2)[nH]n1 [Compound 42, (S)-2-(tert-butoxy)-2-(4-(4,4-dimethylpiperidin-1-yl)-2,6-dimethyl-5-(2-((3-methyl-1H-pyrazol-5-yl)methyl)-1,2,3,4-tetrahydroisoquinolin-6-yl)pyridin-3-yl)acetic acid]	> 7.00
Cc1nc(CN2CCc3cc(-c4c(C)nc(C)c([C@H](OC(C)(C)C)C(=O)O)c4N4CCC(C)(C)CC4)ccc3C2)c[nH]1 [Compound 43, (S)-2-(tert-butoxy)-2-(4-(4,4-dimethylpiperidin-1-yl)-2,6-dimethyl-5-(2-((2-methyl-1H-imidazol-4-yl)methyl)-1,2,3,4-tetrahydroisoquinolin-6-yl)pyridin-3-yl)acetic acid]	> 7.00
CCn1cc(CN2CCc3cc(-c4c(C)nc(C)c([C@H](OC(C)(C)C)C(=O)O)c4N4CCC(C)(C)CC4)ccc3C2)cn1 [Compound 44, (S)-2-(tert-butoxy)-2-(4-(4,4-dimethylpiperidin-1-yl)-5-(2-((1-ethyl-1H-pyrazol-4-yl)methyl)-1,2,3,4-tetrahydroisoquinolin-6-yl)-2,6-dimethylpyridin-3-yl)acetic acid]	> 7.00
Cc1nc(C)c([C@H](OC(C)(C)C)C(=O)O)c(N2CCC(C)(C)CC2)c1-c1ccc2c(c1)CCN(Cc1cccnc1OC(C)C)C2 [Compound 45, (S)-2-(tert-butoxy)-2-(4-(4,4-dimethylpiperidin-1-yl)-5-(2-((2-isopropoxypyridin-3-yl)methyl)-1,2,3,4-tetrahydroisoquinolin-6-yl)-2,6-dimethylpyridin-3-yl)acetic acid]	> 7.00
Cc1nc(C)c([C@H](OC(C)(C)C)C(=O)O)c(N2CCC(C)(C)CC2)c1-c1ccc2c(c1)CCN(Cc1nnn[nH]1)C2 [Compound 46, (S)-2-(5-(2-((1H-tetrazol-5-yl)methyl)-1,2,3,4-tetrahydroisoquinolin-6-yl)-4-(4,4-dimethylpiperidin-1-yl)-2,6-dimethylpyridin-3-yl)-2-(tert-butoxy)acetic acid]	> 7.00
COc1ccc(CN2CCc3cc(-c4c(C)nc(C)c([C@H](OC(C)(C)C)C(=O)O)c4N4CCC(C)(C)CC4)ccc3C2)cn1 [Compound 47, (S)-2-(tert-butoxy)-2-(4-(4,4-dimethylpiperidin-1-yl)-5-(2-((6-methoxypyridin-3-yl)methyl)-1,2,3,4-tetrahydroisoquinolin-6-yl)-2,6-dimethylpyridin-3-yl)acetic acid]	> 7.00
COc1ncc(CN2CCc3cc(-c4c(C)nc(C)c([C@H](OC(C)(C)C)C(=O)O)c4N4CCC(C)(C)CC4)ccc3C2)c(OC)n1 [Compound 48, (S)-2-(tert-butoxy)-2-(5-(2-((2,4-dimethoxypyrimidin-5-yl)methyl)-1,2,3,4-tetrahydroisoquinolin-6-yl)-4-(4,4-dimethylpiperidin-1-yl)-2,6-dimethylpyridin-3-yl)acetic acid]	> 7.00
COc1ccc(CN2CCc3cc(-c4c(C)nc(C)c([C@H](OC(C)(C)C)C(=O)O)c4N4CCC(C)(C)CC4)ccc3C2)c(OC)n1 [Compound 49, (S)-2-(tert-butoxy)-2-(5-(2-((2,6-dimethoxypyridin-3-yl)methyl)-1,2,3,4-tetrahydroisoquinolin-6-yl)-4-(4,4-dimethylpiperidin-1-yl)-2,6-dimethylpyridin-3-yl)acetic acid]	> 7.00
Cc1nc(C)c([C@H](OC(C)(C)C)C(=O)O)c(N2CCC(C)(C)CC2)c1-c1ccc2c(c1)CCN(Cc1cn[nH]c1)C2 [Compound 50, (S)-2-(5-(2-((1H-pyrazol-4-yl)methyl)-1,2,3,4-tetrahydroisoquinolin-6-yl)-4-(4,4-dimethylpiperidin-1-yl)-2,6-dimethylpyridin-3-yl)-2-(tert-butoxy)acetic acid]	> 7.00
Cc1nc(C)c([C@H](OC(C)(C)C)C(=O)O)c(N2CCC(C)(C)CC2)c1-c1ccc2c(c1)CCN(Cc1[nH]nnc1[Si](C)(C)C)C2 [Compound 51, (S)-2-(tert-butoxy)-2-(4-(4,4-dimethylpiperidin-1-yl)-2,6-dimethyl-5-(2-((4-(trimethylsilyl)-1H-1,2,3-triazol-5-yl)methyl)-1,2,3,4-tetrahydroisoquinolin-6-yl)pyridin-3-yl)acetic acid]	> 7.00
Cc1nc(C)c([C@H](OC(C)(C)C)C(=O)O)c(N2CCC(C)(C)CC2)c1-c1ccc2c(c1)CCN(Cc1ccc(=O)[nH]c1)C2 [Compound 52, (S)-2-(tert-butoxy)-2-(4-(4,4-dimethylpiperidin-1-yl)-2,6-dimethyl-5-(2-((6-oxo-1,6-dihydropyridin-3-yl)methyl)-1,2,3,4-tetrahydroisoquinolin-6-yl)pyridin-3-yl)acetic acid]	6.00 to 7.00
Cc1n[nH]cc1CN1CCc2cc(-c3c(C)nc(C)c([C@H](OC(C)(C)C)C(=O)O)c3N3CCC(C)(C)CC3)ccc2C1 [Compound 53, (S)-2-(tert-butoxy)-2-(4-(4,4-dimethylpiperidin-1-yl)-2,6-dimethyl-5-(2-((3-methyl-1H-pyrazol-4-yl)methyl)-1,2,3,4-tetrahydroisoquinolin-6-yl)pyridin-3-yl)acetic acid]	> 7.00
Cc1nn(C)c(Cl)c1CN1CCc2cc(-c3c(C)nc(C)c([C@H](OC(C)(C)C)C(=O)O)c3N3CCC(C)(C)CC3)ccc2C1 [Compound 54, (S)-2-(tert-butoxy)-2-(5-(2-((5-chloro-1,3-dimethyl-1H-pyrazol-4-yl)methyl)-1,2,3,4-tetrahydroisoquinolin-6-yl)-4-(4,4-dimethylpiperidin-1-yl)-2,6-dimethylpyridin-3-yl)acetic acid]	> 7.00
CCN1CCc2cc(-c3c(C)nc(C)c([C@H](OC(C)(C)C)C(=O)O)c3N3CCC(C)(C)CC3)ccc2C1 [Compound 55, (S)-2-(tert-butoxy)-2-(4-(4,4-dimethylpiperidin-1-yl)-5-(2-ethyl-1,2,3,4-tetrahydroisoquinolin-6-yl)-2,6-dimethylpyridin-3-yl)acetic acid]	6.00 to 7.00

same assay, conditions: MT2, 120 h, read-out: EC50 μM

Structure (SMILES)	EC50 [µM]
Cc1nc[nH]c1CN1CCc2cc(-c3c(C)nc(C)c([C@H](OC(C)(C)C)C(=O)O)c3N3CCC(C)(C)CC3)ccc2C1 [Compound 39, (S)-2-(tert-butoxy)-2-(4-(4,4-dimethylpiperidin-1-yl)-2,6-dimethyl-5-(2-((4-methyl-1H-imidazol-5-yl)methyl)-1,2,3,4-tetrahydroisoquinolin-6-yl)pyridin-3-yl)acetic acid]	0.231
COc1ccc(CN2CCc3cc(-c4c(C)nc(C)c([C@H](OC(C)(C)C)C(=O)O)c4N4CCC(C)(C)CC4)ccc3C2)cn1 [Compound 47, (S)-2-(tert-butoxy)-2-(4-(4,4-dimethylpiperidin-1-yl)-5-(2-((6-methoxypyridin-3-yl)methyl)-1,2,3,4-tetrahydroisoquinolin-6-yl)-2,6-dimethylpyridin-3-yl)acetic acid]	0.002
Cc1n[nH]cc1CN1CCc2cc(-c3c(C)nc(C)c([C@H](OC(C)(C)C)C(=O)O)c3N3CCC(C)(C)CC3)ccc2C1 [Compound 53, (S)-2-(tert-butoxy)-2-(4-(4,4-dimethylpiperidin-1-yl)-2,6-dimethyl-5-(2-((3-methyl-1H-pyrazol-4-yl)methyl)-1,2,3,4-tetrahydroisoquinolin-6-yl)pyridin-3-yl)acetic acid]	0.061
